Patent publication US20220000106A1, “HERBICIDAL COMPOSITIONS AND RELATED METHODS” (BELCHIM Crop Protection USA LLC, priority 2020, published 2022)

Tested on: various established weeds including Carolina False Dandelion, Hop Clover, White Clover, Annual Sedge, and Smooth Crabgrass
Experiment: Field study of post-emergence weed control (overall percent weed control of combined weed species) in established Kentucky Tall Fescue
Assay type: in vivo
Details: for efficacy of all weeds: eight days after treatment
Procedure: Field studies were conducted on a mixed stand of established Kentucky Tall Fescue containing various established weeds including but not limited to Carolina False Dandelion, Hop Clover, White Clover, Annual Sedge, and Smooth Crabgrass in Selma, N.C. The trial location was mowed weekly at a mowing height of three inches. The distribution of weeds was uniform throughout the study.
Individual treatment plots were applied on a 1×3 meter squared plot area. The experimental design was a randomized complete block with three replications. The applications were made with a carbon dioxide backpack sprayer equipped with 11003 nozzles with a spray pressure of 40 psi calibrated to deliver approximately 40 gallons per acre spray volume. All applications were applied on a single day. The wind speed was less than 10 mph at time of application.
Data were collected at 2, 4, 8, 13, 23 and 30 days after application of treatments, respectively. Data were collected as an estimate of overall percent weed control (efficacy) of combined weed species taking into consideration necrosis, chlorosis, and stunting of each weed species. The data were analyzed in ARM using the ANOVA and preforming the Duncan's New MRT test at P=0.05 (indicated by “a,” “b,” “c,”, etc.).
Glufosinate used in this trial was Surmise (2.34 lb/gal.) marketed by Albaugh LLC. Pelargonic Acid used in this trial was Beloukha Garden Herbicide (4.21 lb/gal.) marketed by Belchim Crop Protection USA.
The total percent weed control was calculated by comparing the individual treated plots and assessing individual weeds.

CP(=O)(O)CCC(N)C(=O)O (stereo not shown) [Glufosinate, 2-amino-4-[hydroxy(methyl)phosphoryl]butanoic acid]
Percent Control (0.5 fluid oz/gal, 2 days after treatment): 0.0b %
Percent Control (0.5 fluid oz/gal, 4 days after treatment): 20.0c %
Percent Control (0.5 fluid oz/gal, 8 days after treatment): 85.0ab %
Percent Control (0.5 fluid oz/gal, 13 days after treatment): 90.0b %
Percent Control (0.5 fluid oz/gal, 23 days after treatment): 85.2b %
Percent Control (0.5 fluid oz/gal, 30 days after treatment): 83.6b %
Percent Control (1.0 fluid oz/gal, 2 days after treatment): 0.0b %
Percent Control (1.0 fluid oz/gal, 4 days after treatment): 15.0cd %
Percent Control (1.0 fluid oz/gal, 8 days after treatment): 91.0a %
Percent Control (1.0 fluid oz/gal, 13 days after treatment): 90.7b %
Percent Control (1.0 fluid oz/gal, 23 days after treatment): 90.4b %
Percent Control (1.0 fluid oz/gal, 30 days after treatment): 95.0a %
Percent Control (2.0 fluid oz/gal, 2 days after treatment): 0.0b %
Percent Control (2.0 fluid oz/gal, 4 days after treatment): 15.0cd %
Percent Control (2.0 fluid oz/gal, 8 days after treatment): 94.3a %
Percent Control (2.0 fluid oz/gal, 13 days after treatment): 98.0a %
Percent Control (2.0 fluid oz/gal, 23 days after treatment): 99.1a %
Percent Control (2.0 fluid oz/gal, 30 days after treatment): 97.1a %
efficacy of all weeds (all glufosinate treatments at all dose rates): 85 to 94%
control of all weeds (efficacy) (glufosinate alone, all dose rates, 23 days after treatment): 85 to 99%

CCCCCCCCC(=O)O [Pelargonic Acid, nonanoic acid]
Percent Control (3.2 fluid oz/gal, 2 days after treatment): 6.7b %
Percent Control (3.2 fluid oz/gal, 4 days after treatment): 20.0c %
Percent Control (3.2 fluid oz/gal, 8 days after treatment): 40.0c %
Percent Control (3.2 fluid oz/gal, 13 days after treatment): 22.2d %
Percent Control (3.2 fluid oz/gal, 23 days after treatment): 20.0d %
Percent Control (3.2 fluid oz/gal, 30 days after treatment): 20.0c %
Percent Control (6.4 fluid oz/gal, 2 days after treatment): 40.0a %
Percent Control (6.4 fluid oz/gal, 2 days after treatment, listed as pelargonic acid): 40%
Percent Control (6.4 fluid oz/gal, 4 days after treatment): 50.0b %
Percent Control (6.4 fluid oz/gal, 8 days after treatment): 73.3b %
Percent Control (6.4 fluid oz/gal, 13 days after treatment): 66.7c %
Percent Control (6.4 fluid oz/gal, 23 days after treatment): 40.0c %
Percent Control (6.4 fluid oz/gal, 30 days after treatment): 23.2c %
efficacy of all weeds (pelargonic acid alone, both dose rates): 40% to 73
